Measurements published in patent US11926826B2, “Twist signaling inhibitor compositions and methods of using the same” (City of Hope, priority 2016, dated 2024).

Assays:
[1] = system: A2780R cells; assay: Sulphorhodamine B cell survival assay with cisplatin, A2780R; assay type: cell-based; settings: without YTZ3-15-si494 treatment
Experimental: Sulphorhodamine B Cell Survival Assays. A2780R or Ovcar8-IP cells were plated in 6 well plates and allowed to adhere overnight. The following day, cells were transfected with siQ, si419, or si494 as described above—A2780R cells using YTZ3-15 and Ovcar8-IP cells using MSNs. After 48-72 hours, cells were transferred to 96 well plates at 5,000 cells per well and allowed to adhere overnight. The following day cells were treated with cisplatin at a series of concentrations (cells not treated with cisplatin served as controls). After 72 hours, cells were fixed in 10% trichloroacetic acid for 1 hour at 4° C., washed with water, and dried. Cells were stained in 0.4% sulphorhodamine B (SRB) in 1% acetic acid for 15 minutes at room temperature and then washed 3-4 times with 1% acetic acid until no further color was present in the wash. Any stray SRB on the walls of the wells was removed, and stained cells were dried for 10 minutes. SRB was solubilized in 10 mM Tris base and color intensity was quantified by absorbance at 570 nm. Each condition was normalized to its own untreated control.

[2] = system: Ovcar8-IP tumors; assay: Ovcar8-IP intraperitoneal tumor model in NSG mice, MSN-siRNA with or without cisplatin; assay type: in vivo
Experimental: Animal Studies. The animal studies conducted in these experiments were done in accordance with a protocol approved by the Institutional Animal Care and Use Committee at the City of Hope Beckman Research Institute. A total of 48 female NOD.Cg-Prkdc^scidIl2rg^tm1Wj1/SzJ (NSG) mice (The Jackson Laboratory, Bar Harbor, ME) were used. Ten week old (on average) mice were administered an intraperitoneal injection (IP) of 2.5×10^6 Ovcar8-IP cells in 200 μl of RPMI media. For all studies, mice were placed into four groups: MSN-siQ, MSN-siQ+cisplatin, MSN-si419H, and MSN-si419H+cisplatin (n=4 or n=8). Previous reports show no cellular uptake without MSNs^14, thus a siRNA-only group was not added to this study.
Bioluminescent imaging of mice (using Xenogen IVIS 100 biophotonic imaging system, STTARR, Toronto, Ontario, Canada) commenced seven days after injection of tumor cells in order to ensure engraftment, and continued once a week for four weeks. Mice were given a 100 μl IP injection of 20 mg/ml D-Luciferin (PerkinElmer, Waltham, MA). Ten minutes after the D-luciferin injection, mice were anesthetized with isoflurane (2%-5%) and placed in the biophotonic imager, and images were taken within two minutes. An alfalfa-free version of the regular rodent diet (alfalfa-free CA-1) was administered to the siQ mice to prevent autofluorescence from the regular diet.
IP injections of MSN+siRNA (siQ fluorescently labeled with ALEXAFLUOR® 647 or si419H) were conducted one week after the inoculation of Ovcar8-IP cells and done once or twice per week for a total of four weeks. Mice received 105 μl of 500 ng/μl MSN complexed with 15 μl of 10 μM siRNA per week, divided into one full or two half doses (n=4 and n=8, respectively). This is equivalent to […] MSN/week. Weekly 3 mg/kg IP cisplatin injections were given starting two weeks after initial inoculation of cells.
At completion of the experiment, all animals were euthanized via CO2 asphyxiation. […]
Statistics. All in vivo data was analyzed using one-way ANOVA with correction for multiple comparisons, comparing all groups to MSN-siQ treatment group. […]

[3] = system: Akt; assay: Western blotting of total Akt during cisplatin exposure; assay type: cell-based, human
Experimental: (§1) Western blotting. Cells were pelleted and washed once with phosphate buffered saline (PBS), then lysed in RIPA buffer. Protein concentration was determined using a BCA assay (Thermo Fisher). Equal masses of protein were run on 4% stacking, 10% resolving polyacrylamide gels, and then transferred to PVDF membrane (GE Healthcare Bio-Sciences, Pittsburgh, PA) using the Trans-Blot SD Semi-Dry Transfer Cell (Bio-Rad). Membranes were blocked in dry milk dissolved in PBS with shaking for 1 hr at room temperature or overnight at 4° C. 3% BSA was used for blocking prior to select pAkt blots to reduce background signal. Primary and secondary antibodies were diluted as indicated below in 5% dry milk in PBS with 0.1-0.2% Tween-20. Incubation was performed at room temperature for one hr or overnight at 4° C. for primary, and at room temperature for one hr for secondary. Each antibody incubation was followed by five 5 min washes in PBS with 0.1% Tween-20. FemtoGlow HRP substrate (Michigan Diagnostics, Royal Oak, MI) and the Pxi4 chemiluminescent imager (Syngene, Frederick, MD) were used to acquire digital images. ECL 2 (Thermo Fisher) and Blue Devil Film (Genesee Scientific) were used to acquire film images. […] For select digital and film westerns, bands were quantified using GeneTools software from Syngene or Image Studio Lite from LiCor (Lincoln, NB), respectively, and normalized to β-Actin.

[4] = system: Phospho Akt (Ser473); assay: Western blotting of Akt phosphorylated at Ser 473 during cisplatin exposure; assay type: cell-based, human; settings: 24 hr
Experimental: as §1

[5] = system: TWIST1; assay: Western blotting of TWIST1 during cisplatin exposure; assay type: cell-based, human; settings: Ov8GFP-TWIST1 cells; 5 μM cisplatin over 24 hr
Experimental: as §1

**Q.** What does the source list for `N.N.[Cl][Pt][Cl]` [cisplatin]?
**A.** IC50 [1]: ~200 µM; reduction of metastasis incidence (number of disseminated masses) ([2]; FIG. 21B): approximately 50%; proportion of mice developing ascites ([2]; n=4 per group): 2/4; increase in Akt levels ([3]; Ov8GFP-TWIST1 cells, siQ, 5 μM cisplatin over 24 hr): 150%; total Akt levels ([3]; Ov8GFP-sh492 cells, cisplatin over 24 hr): relatively constant; increase in proportion of Akt phosphorylated at Ser 473 ([4]; Ov8GFP-TWIST1 cells, siQ, 5 μM cisplatin, normalized to total Akt): 128%; reduction in phosphorylated Akt ([4]; Ov8GFP-sh492 cells, cisplatin): 63%; increase in TWIST1 expression [5]: up to 2.3 fold
